From patent publication US10670605B2, “Cysteine reactive probes and uses thereof” (The Scripps Research Institute, priority 2015, dated 2020) come the findings set out here.

The IC50 is the concentration that gives 50% inhibition.

Molecules are shown by their SMILES.

One assay addresses USP16 C205 (Q9Y5T5) (Homo sapiens, UniProt Q9Y5T5). Briefly: Competitive isoTOP-ABPP in situ. It is filed as cell-based. The settings on record: MDA-MB-231 cells.
The target in another assay is O14933 C98 (Homo sapiens, UniProt O14933). Put plainly: Competitive isoTOP-ABPP, cell lysates. It is filed as binding. The settings on record: 500 μM, invitro, ramos.
O14933 C98, sequence (O14933 whole entry): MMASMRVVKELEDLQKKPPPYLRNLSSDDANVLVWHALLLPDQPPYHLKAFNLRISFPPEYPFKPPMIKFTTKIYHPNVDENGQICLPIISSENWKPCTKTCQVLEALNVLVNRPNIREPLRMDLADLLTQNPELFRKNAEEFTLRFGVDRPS
A further assay has as its target PES1 C272 (O00541) (Homo sapiens, UniProt O00541). Briefly: Competitive isoTOP-ABPP, cell lysates. Conditions: 500 μM, invitro. It is filed as binding.
The target in assay [1] is T1, cysteines in MDA-MB-231 and Ramos cells (Homo sapiens, UniProt Q8N2W9).
T1 sequence (Q8N2W9 1-510): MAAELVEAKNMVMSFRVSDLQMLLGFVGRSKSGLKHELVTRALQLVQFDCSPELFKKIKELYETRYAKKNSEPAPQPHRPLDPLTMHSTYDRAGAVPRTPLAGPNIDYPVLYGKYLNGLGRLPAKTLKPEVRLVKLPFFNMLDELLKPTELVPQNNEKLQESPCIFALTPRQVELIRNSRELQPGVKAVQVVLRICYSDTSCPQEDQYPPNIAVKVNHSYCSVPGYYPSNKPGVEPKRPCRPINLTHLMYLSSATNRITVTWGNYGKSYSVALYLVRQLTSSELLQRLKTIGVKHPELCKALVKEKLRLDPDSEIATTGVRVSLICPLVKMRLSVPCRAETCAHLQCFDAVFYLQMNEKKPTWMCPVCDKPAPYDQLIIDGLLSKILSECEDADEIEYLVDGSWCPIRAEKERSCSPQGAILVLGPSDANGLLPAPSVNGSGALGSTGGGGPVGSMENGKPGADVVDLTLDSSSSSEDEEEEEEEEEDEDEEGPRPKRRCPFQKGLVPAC
Briefly: Competitive isoTOP-ABPP in situ (fragment-treated cells). It is filed as cell-based. The settings on record: 200 μM, insitu.

Assay [2] addresses T2, cysteines in MDA-MB-231 and Ramos cells (Homo sapiens, UniProt Q8IYQ7).
T2 sequence (Q8IYQ7 1-743): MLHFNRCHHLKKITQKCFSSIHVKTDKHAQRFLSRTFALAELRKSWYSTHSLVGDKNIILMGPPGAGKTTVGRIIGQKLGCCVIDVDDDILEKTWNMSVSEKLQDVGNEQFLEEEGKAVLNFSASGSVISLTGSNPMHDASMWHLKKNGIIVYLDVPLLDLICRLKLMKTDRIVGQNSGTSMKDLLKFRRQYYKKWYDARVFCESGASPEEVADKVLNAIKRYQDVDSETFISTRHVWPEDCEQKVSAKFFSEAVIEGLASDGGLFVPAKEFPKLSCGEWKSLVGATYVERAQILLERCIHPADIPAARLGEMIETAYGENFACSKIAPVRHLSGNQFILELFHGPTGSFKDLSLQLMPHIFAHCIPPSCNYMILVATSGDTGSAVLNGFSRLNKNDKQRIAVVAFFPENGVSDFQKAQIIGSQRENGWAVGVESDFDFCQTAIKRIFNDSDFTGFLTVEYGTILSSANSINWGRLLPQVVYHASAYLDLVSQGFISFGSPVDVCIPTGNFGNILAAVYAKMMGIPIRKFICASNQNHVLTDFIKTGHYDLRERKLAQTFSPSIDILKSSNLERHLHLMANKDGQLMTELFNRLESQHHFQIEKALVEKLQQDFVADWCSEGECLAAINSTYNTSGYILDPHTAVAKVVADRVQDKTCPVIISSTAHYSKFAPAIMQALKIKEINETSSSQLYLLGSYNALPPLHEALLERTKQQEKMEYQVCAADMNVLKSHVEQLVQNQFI
The assay is described as above. The assay is classed as cell-based. Conditions: 200 μM, insitu, 231.

Assay [3] addresses cysteines in MDA-MB-231 and Ramos cells (Homo sapiens, UniProt Q8NFF5). The assay is described as above. The assay is classed as cell-based.
A further assay has as its target CYR61 C70 (O00622) (Homo sapiens, UniProt O00622). Put plainly: Competitive isoTOP-ABPP, cell lysates. The assay is classed as binding.
The target of the next assay is T3, PRMT1 (C109) (Homo sapiens, UniProt Q99873).
T3 construct: Full length PRMT1 subcloned into pET45b (+) (Novagen) was previously generated by the Cravatt lab; inferred from Ni-NTA purification and the pET45b vector; made in house; host or cells: E. coli BL21(DE3)
T3 sequence (Q99873 11-371 limits assumed): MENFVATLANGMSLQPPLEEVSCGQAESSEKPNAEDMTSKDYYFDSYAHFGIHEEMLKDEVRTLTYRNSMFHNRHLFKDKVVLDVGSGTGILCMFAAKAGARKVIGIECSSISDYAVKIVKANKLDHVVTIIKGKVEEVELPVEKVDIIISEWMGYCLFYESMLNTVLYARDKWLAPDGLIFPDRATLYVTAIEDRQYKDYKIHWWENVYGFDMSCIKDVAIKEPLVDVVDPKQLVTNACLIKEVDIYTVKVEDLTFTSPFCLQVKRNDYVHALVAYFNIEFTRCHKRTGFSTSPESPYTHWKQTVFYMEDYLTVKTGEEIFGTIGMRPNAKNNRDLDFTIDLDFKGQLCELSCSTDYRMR
Briefly: Blockade of IA-rhodamine labeling of recombinant PRMT1 (gel-based ABPP). The assay is classed as binding.

cysteines in MDA-MB-231 and Ramos cells (Homo sapiens, UniProt Q8NFF5), sequence (Q8NFF5 18-587): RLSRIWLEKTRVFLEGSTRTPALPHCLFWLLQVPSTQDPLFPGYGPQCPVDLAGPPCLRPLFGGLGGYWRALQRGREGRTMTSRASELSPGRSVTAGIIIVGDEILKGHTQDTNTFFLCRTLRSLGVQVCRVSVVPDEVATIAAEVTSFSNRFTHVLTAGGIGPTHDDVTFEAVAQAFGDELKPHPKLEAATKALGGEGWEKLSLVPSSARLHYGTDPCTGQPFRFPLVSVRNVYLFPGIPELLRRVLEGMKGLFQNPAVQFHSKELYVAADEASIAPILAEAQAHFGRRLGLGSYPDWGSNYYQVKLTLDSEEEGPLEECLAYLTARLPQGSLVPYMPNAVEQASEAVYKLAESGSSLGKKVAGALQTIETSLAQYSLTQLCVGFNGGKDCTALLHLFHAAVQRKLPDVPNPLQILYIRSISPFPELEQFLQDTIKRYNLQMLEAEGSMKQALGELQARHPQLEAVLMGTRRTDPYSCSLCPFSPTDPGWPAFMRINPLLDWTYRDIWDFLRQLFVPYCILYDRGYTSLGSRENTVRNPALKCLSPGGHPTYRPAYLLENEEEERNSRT
PES1 C272 (O00541), sequence (O00541 whole entry, looked up): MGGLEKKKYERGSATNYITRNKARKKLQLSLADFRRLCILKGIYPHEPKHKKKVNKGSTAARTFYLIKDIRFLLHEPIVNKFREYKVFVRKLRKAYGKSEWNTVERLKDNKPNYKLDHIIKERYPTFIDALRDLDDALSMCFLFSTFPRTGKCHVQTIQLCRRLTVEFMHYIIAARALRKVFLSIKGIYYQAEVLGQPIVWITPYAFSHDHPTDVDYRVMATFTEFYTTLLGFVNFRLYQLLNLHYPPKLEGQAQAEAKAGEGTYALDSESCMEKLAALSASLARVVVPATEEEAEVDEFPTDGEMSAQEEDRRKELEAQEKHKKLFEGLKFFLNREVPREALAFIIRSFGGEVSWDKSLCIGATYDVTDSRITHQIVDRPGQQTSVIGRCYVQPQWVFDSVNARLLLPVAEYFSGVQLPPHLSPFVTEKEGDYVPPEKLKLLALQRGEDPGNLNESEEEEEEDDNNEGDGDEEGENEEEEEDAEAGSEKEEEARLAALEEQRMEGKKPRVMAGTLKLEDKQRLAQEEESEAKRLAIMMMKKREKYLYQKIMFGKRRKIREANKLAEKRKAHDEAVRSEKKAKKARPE
CYR61 C70 (O00622), sequence (O00622 25-381): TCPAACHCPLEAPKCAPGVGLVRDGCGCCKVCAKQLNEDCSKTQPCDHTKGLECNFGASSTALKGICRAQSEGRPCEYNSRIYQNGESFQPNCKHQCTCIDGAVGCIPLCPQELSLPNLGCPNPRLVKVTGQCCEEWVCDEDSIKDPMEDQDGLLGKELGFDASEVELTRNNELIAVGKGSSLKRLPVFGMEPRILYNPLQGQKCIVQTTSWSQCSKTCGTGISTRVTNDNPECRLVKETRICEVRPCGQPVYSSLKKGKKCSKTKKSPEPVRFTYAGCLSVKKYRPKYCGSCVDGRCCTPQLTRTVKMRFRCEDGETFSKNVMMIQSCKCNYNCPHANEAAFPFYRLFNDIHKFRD
USP16 C205 (Q9Y5T5), sequence (Q9Y5T5 whole entry): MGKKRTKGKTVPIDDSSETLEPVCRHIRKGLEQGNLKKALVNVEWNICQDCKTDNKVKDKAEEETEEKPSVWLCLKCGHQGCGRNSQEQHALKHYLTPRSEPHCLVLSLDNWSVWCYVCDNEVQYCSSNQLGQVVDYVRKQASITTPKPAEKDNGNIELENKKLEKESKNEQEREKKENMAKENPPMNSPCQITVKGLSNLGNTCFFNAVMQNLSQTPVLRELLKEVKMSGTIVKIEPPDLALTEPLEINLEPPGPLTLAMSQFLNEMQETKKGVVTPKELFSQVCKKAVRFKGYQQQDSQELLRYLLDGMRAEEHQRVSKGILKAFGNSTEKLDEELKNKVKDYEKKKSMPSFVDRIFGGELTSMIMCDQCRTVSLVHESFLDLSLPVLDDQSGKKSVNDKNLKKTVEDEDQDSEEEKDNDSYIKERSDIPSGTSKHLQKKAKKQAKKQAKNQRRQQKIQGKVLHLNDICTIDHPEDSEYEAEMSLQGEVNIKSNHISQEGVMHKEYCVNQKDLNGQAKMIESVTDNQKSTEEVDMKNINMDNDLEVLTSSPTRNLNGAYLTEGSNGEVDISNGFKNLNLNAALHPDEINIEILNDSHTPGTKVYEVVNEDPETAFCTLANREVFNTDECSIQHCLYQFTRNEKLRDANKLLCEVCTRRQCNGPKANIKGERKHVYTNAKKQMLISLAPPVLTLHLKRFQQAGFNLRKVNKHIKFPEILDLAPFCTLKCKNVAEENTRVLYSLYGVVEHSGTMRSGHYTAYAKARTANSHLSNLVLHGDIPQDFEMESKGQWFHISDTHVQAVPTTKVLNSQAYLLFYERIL

Consider `COc1ccc(C2CC(c3cccs3)=NN2C(=O)CCl)cc1` (centres unmarked) [compound 4], for which the “isoTOP-ABPP reactivity profile (ratio) 4_100 μM_in-situ_231” value on USP16 C205 (Q9Y5T5) (fragment 4 at 100 μM) is 20.0.
On to `O=C(CCl)NC(=O)NC12CC3CC(CC(C3)C1)C2` [compound 12], for which the “isoTOP-ABPP ratio O14933_C98” value on O14933 C98 amounted to 1.3.
In the case of `O=C(CCl)N1CCN(S(=O)(=O)c2ccccc2F)CC1` [compound 10], the “isoTOP-ABPP ratio, O00541_C272” value at PES1 C272 (O00541) (ramos) is reported as 2.2. Further, the “isoTOP-ABPP ratio, cysteine Q8N2W9_C326” value in assay [1] (231) was found to be 4.5. The “isoTOP-ABPP ratio, cysteine Q8IYQ7_C324” value in assay [2] came to 5.3.
For the molecule `O=C(CCl)N1CCN(CC(=O)N2CCOCC2)CC1` [compound 29], the “isoTOP-ABPP ratio Q8NFF5_C499” value in assay [3] (200 μM, insitu, ramos) turned out to be 3.4.
In the case of `CC(C)CCOCCNC(=O)CCl` [compound 27], the “isoTOP-ABPP ratio (reactivity profile), O00622_C70” value on CYR61 C70 (O00622) (500 μm in-vitro ramos_231) stood at 1.1.
With `O=C(CCl)N1CCC(Cc2ccccc2)CC1` [compound 9], the “isoTOP-ABPP reactivity Q8IYQ7_C324 THNSL1” value in assay [2] turned out to be 1.6.
In the case of `O=C(CCl)NC12CC3CC(CC(C3)C1)C2` [compound 21], the “isoTOP-ABPP ratio, cysteine Q8N2W9_C326” value in assay [1] (231) is 1.0. For the same molecule, in assay [2], the “isoTOP-ABPP ratio, cysteine Q8IYQ7_C324” value is listed as 2.0.
Regarding `COc1ccc2c(c1)CCCN2C(=O)CCl` [compound 2], the “isoTOP-ABPP reactivity profile (ratio) 2_200 μM_in-situ_231” value on USP16 C205 (Q9Y5T5) (fragment 2 at 200 μM) worked out at 7.9. In addition, the “isoTOP-ABPP reactivity Q8NFF5_C499 FLAD1” value in assay [3] (200 μM, insitu, 231) is recorded as 6.2.
For the molecule `Cn1cc(S(=O)(=O)N2CCOCC2)cc1C(=O)NC(=O)CCl` [compound 11], the “isoTOP-ABPP ratio, O00541_C272” value at PES1 C272 (O00541) (ramos) is on record as 4.2. Besides, the “isoTOP-ABPP ratio O14933_C98” value on O14933 C98 turned out to be 3.4. For the same molecule, the concentration for half-maximal inhibition (IC50) on PRMT1 (C109) (recombinant WT-PRMT1 1 μM in cell lysate, fragment 1 h) turned out to be 36 µM. The “isoTOP-ABPP ratio, cysteine Q8NFF5_C499” value in assay [3] (100 μM in situ 231) amounted to 16.
In the case of `O=C(CCl)NCCc1c[nH]c2ccccc12` [compound 13], the “isoTOP-ABPP ratio, O00541_C272” value at PES1 C272 (O00541) (231) came out at 1.7. Besides, on O14933 C98, the “isoTOP-ABPP ratio O14933_C98” value is on record as 1.0. Moreover, the “isoTOP-ABPP ratio, cysteine Q8N2W9_C326” value in assay [1] (ramos) is 20.0. Moreover, the “isoTOP-ABPP ratio, cysteine Q8IYQ7_C324” value in assay [2] turned out to be 1.3.
As to `Cc1ccc(C=C(C#N)C(=O)NCCN2CCOCC2)cc1` [compound 41], the “isoTOP-ABPP ratio Q8N2W9_C326” value in assay [1] (231) came to 0.8.
For `O=C(CCl)Nc1cc(C(F)(F)F)cc(C(F)(F)F)c1` [compound 3], at CYR61 C70 (O00622) (500 μM, in vitro, MDA-MB-231), the “R value (DMSO/fragment)” value is listed as 20.0. In addition, at PRMT1 (C109) (recombinant WT-PRMT1 in cell lysate), the “blockade of IA-rhodamine labeling of PRMT1 (in words)” value was “inactive”.
For `C=CC(=O)N(c1ccccc1)c1ccc(Br)cc1` [compound 5], the “isoTOP-ABPP ratio, O00541_C272” value at PES1 C272 (O00541) (ramos) is given as 12.3.
Turning to `C=CC(=O)Nc1cc(F)c(N2CCN(C(=O)OC(C)(C)C)CC2)c(F)c1` [compound 38], the “isoTOP-ABPP ratio Q8N2W9_C326” value in assay [1] (231) was 0.9.
For the molecule `COc1cc2c(cc1OC)CN(C(=O)CCl)CC2` [compound 8], the “isoTOP-ABPP reactivity Q8IYQ7_C324 THNSL1” value in assay [2] turned out to be 20.0.
